Columns and labels:
[1] = Pharmacokinetic Assay, single oral dose 5 mg/kg (Table 12); type: in vivo; conditions: mouse, plasma concentration, C57 female mice, single oral dose 5 mg/kg
Outline: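 Adult female C57 mice (n=3) got one intragastric dose of 5 mg/kg in 15% DMSO, 10% Kolliphor HS 15, 75% saline. Retro-orbital blood was taken at 30 min, 2 h and 4 h into K2-EDTA. Plasma levels were measured by LC-MS/MS.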

[2] = Pharmacokinetic Assay, single oral dose 100 mg/kg (Table 11); type: in vivo; conditions: mouse, C57 female mice, oral (intragastric), plasma
Procedure: Adult C57 female mice were received to single-dose of the test compounds with […], 10% Kolliphor^@HS 15 and 80% saline as excipients, the mice (n=9) were giving oral administration (intragastric administration) with the compounds at a dose of 100 mg/kg. Time of blood collection: 15 min, 30 min, 1 h, 2 h, 4 h, 7 h, 24 h. Approximately 0.1 mL of whole blood was collected from retro-orbital venous plexus of 3 mice at each time point, and placed into tubes that contained K2-EDTA as an anticoagulant. The whole blood was centrifuged at 4° C. and 4000 rpm for 10 min. The plasma was transferred into centrifuge tubes, and stored at −20° C. until being analyzed. Concentrations of test compounds in the plasma samples were analyzed with liquid chromatography-tandem mass spectrometry (LC-MS/MS). Plasma concentration-time data of individual animals was analyzed using Microsoft Excel 2010. Non-compartmental model was introduced in concentration analysis. The pharmacokinetic parameters of the test compounds were calculated using WinNonlin (version 4.1; Pharsight) software.

PD-1/PD-L1 = PD-1/PD-L1 (Homo sapiens (Human), UniProt Q9NZQ7); test: PD-1/PD-L1 Binding Assay (Alphascreen)
PD-1/PD-L1, sequence (Q9NZQ7 19-238): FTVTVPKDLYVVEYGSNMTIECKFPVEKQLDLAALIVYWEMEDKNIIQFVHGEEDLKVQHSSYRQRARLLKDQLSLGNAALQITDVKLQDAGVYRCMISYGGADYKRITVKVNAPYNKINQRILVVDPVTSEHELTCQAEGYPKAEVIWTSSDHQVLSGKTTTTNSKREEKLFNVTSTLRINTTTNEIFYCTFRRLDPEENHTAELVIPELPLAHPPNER
Outline: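 PD-1/PD-L1 binding detected by anti-6×His acceptor and streptavidin donor beads after 120 min in the dark at 25 °C. Beforehand, the two proteins were incubated 15 min at 25 °C with inhibitor at 0.015–300 nM (1% DMSO). IC50 comes from a log concentration–response curve.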

[3] = tested on: PD-1/PD-L1 interaction (Jurkat T cells expressing hPD-1 and PD-L1 aAPC/CHO-K1 cells expressing hPD-L1); test: NFAT Assay (PD-1/PD-L1 Blockade Bioassay, luciferase reporter); type: cell-based; conditions: Homo sapiens; PD-1 effector Jurkat cells + PD-L1 aAPC/CHO-K1 cells, Bio-Glo luciferase
Procedure: PD-1/PD-L1 Blockade Bioassay contains two cells: PD-1 Effector Cells, which are the Jurkat T cells expressing hPD-1 and luciferase reporter genes; PD-L1 aAPC/CHO-K1 Cells, which are the CHO-K1 cells expressing hPD-L1 and activate TCR's cell surface proteins. The antibody or small molecule compound is incubated with these two cells for a period of time, and the amount of the product is detected using Bio-Glo Luciferase reagent and chemiluminescence method to reflect the influence of antibody or small molecule compound on PD-1/PD-L1 interaction.
Cell medium: 36 mL Ham's F-12; 4 mL FBS
1) Resuscitate PD-L1 aAPC/CHO-K1 Cells on the first day and the cells were suspended and counted with cell recovery medium. The cells were diluted to 2.65*10^5/ml with cell medium. Seed cells at density of 6000 cells/well of 384-wells plates, incubator for 16-24 h;
2) Dilute the compound to 5 mM with DMSO. The 5 mM solution was used as the first concentration, and a 3-fold gradient dilution was performed, with a total of 9 concentration gradients, and the 10th concentration was used as the DMSO control;
3) Positive control antibody Atezolizumab was diluted to 4 μg/ml with assay buffer. 4 μg/ml was used as the first concentration, and a 2.5-fold gradient dilution was performed, with a total of 9 concentration gradients, and the 10th concentration was used as the assay buffer control;
4) Aspirate the medium from the 384-well plate. Add 10 μL/well of compound to the 384-well plate and incubate for 2 hours;
5) Resuscitate PD-1 effector cells and the cells were suspended and counted with cell recovery medium. The cells were diluted to […] with cell medium. Seed cells at density of 8000 cells/well to 384-wells plates of step 4, incubator for 17 h;
6) Add 20 μL/well of Bio-Glo luciferase reagent to the 384 reaction plate of step 5, and incubate at 25° C. for 5-30 minutes.
7) Read the RLU (relative luminescence unit) value using the Envision multi-plate reader. The experimental data were plotted using compound concentration as X value and RLU as Y value.

Cc1c(-c2nc3cc(CN4CCC[C@H]4C(=O)O)c(OC(F)F)cc3o2)cccc1-c1cccc(-c2nc3cc(CN4CC(C)(C)C4)cc(C#N)c3o2)c1C [Example 103, ((2-(3′-(7-cyano-5-((3,3-dimethylazetidin-1-yl)methyl)benzo[d]oxazol-2-yl)-2,2′-dimethyl-[1,1′-biphenyl]-3-yl)-6-(difluoromethoxy)benzo[d]oxazol-5-yl)methyl)-L-proline]
concentration at 0.5 h [1]: 48.9 ng/mL
concentration at 2 h [1]: 185 ng/mL
concentration at 4 h [1]: 135 ng/mL
AUC [2]: 96400 ng·h/mL
Cmax [2]: 5590 ng/mL
Tmax [2]: 4 h
half-life [2]: 23.4 h
IC50 (PD-1/PD-L1; numeric values): 0.13 nM
EC50 [3]: 254 nM

Cc1c(-c2nc3cc(CN4CCC[C@H]4C(=O)O)ccc3o2)cccc1-c1cccc(-c2nc3cc(CN4CC(C)(C)C4)cc(C#N)c3o2)c1C [Example 318, ((2-(3′-(7-cyano-5-((3,3-dimethylazetidin-1-yl)methyl)benzo[d]oxazol-2-yl)-2,2′-dimethyl-[1,1′-biphenyl]-3-yl)benzo[d]oxazol-5-yl)methyl)-L-proline]
EC50 [3]: 3220 nM

Cc1c(-c2nc3cc(CN4CCCC4)c(OC(F)F)cc3o2)cccc1-c1cccc(-c2nc3cc(CN4CCC[C@H]4C(=O)O)c(OC(F)F)cc3o2)c1C [Example 5, ((6-(difluoromethoxy)-2-(3′-(6-(difluoromethoxy)-5-(pyrrolidin-1-ylmethyl)benzo[d]oxazol-2-yl)-2,2′-dimethyl-[1,1′-biphenyl]-3-yl)benzo[d]oxazol-5-yl)methyl)-L-proline]
concentration at 0.5 h [1]: 43.9 ng/mL
concentration at 2 h [1]: 55.7 ng/mL
concentration at 4 h [1]: 61.2 ng/mL
AUC [2]: 25700 ng·h/mL
Cmax [2]: 2600 ng/mL
Tmax [2]: 4 h
half-life [2]: 5.07 h
IC50 (PD-1/PD-L1; numeric values): 0.4 nM
EC50 [3]: 317 nM

Cc1c(-c2nc3cc(CN4CCC[C@H]4C(=O)O)ccc3o2)cccc1-c1cccc(-c2nc3cc(CN4CCCC4)c(OC(F)F)cc3o2)c1C [Example 317, ((2-(3′-(6-(difluoromethoxy)-5-(pyrrolidin-1-ylmethyl)benzo[d]oxazol-2-yl)-2,2′-dimethyl-[1,1′-biphenyl]-3-yl)benzo[d]oxazol-5-yl)methyl)-L-proline]
concentration at 0.5 h [1]: 20.6 ng/mL
concentration at 2 h [1]: 88.5 ng/mL
concentration at 4 h [1]: 44.3 ng/mL
EC50 [3]: 4700 nM

Cc1c(-c2nc3cc(CN4CCC(O)C4)c(OC(F)F)cc3o2)cccc1-c1cccc(-c2nc3cc(CN4CCC[C@H]4C(=O)O)c(OC(F)F)cc3o2)c1C (stereo partly drawn) [Example 14, ((6-(difluoromethoxy)-2-(3′-(6-(difluoromethoxy)-5-((3-hydroxypyrrolidin-1-yl)methyl)benzo[d]oxazol-2-yl)-2,2′-dimethyl-[1,1′-biphenyl]-3-yl)benzo[d]oxazol-5-yl)methyl)-L-proline]
AUC [2]: 3450 ng·h/mL
Cmax [2]: 589 ng/mL
Tmax [2]: 1 h
half-life [2]: 6.2 h
IC50 (PD-1/PD-L1; numeric values): 1.2 nM

COC[C@@H]1CCCN1Cc1cc2nc(-c3cccc(-c4cccc(-c5nc6cc(CN7CCC[C@H]7C(=O)O)c(OC(F)F)cc6o5)c4C)c3C)oc2cc1OC(F)F [Example 63, ((6-(difluoromethoxy)-2-(3′-(6-(difluoromethoxy)-5-(((S)-2-(methoxymethyl)pyrrolidin-1-yl)methyl)benzo[d]oxazol-2-yl)-2,2′-dimethyl-[1,1′-biphenyl]-3-yl)benzo[d]oxazol-5-yl)methyl)-L-proline]
AUC [2]: 43700 ng·h/mL
Cmax [2]: 2920 ng/mL
Tmax [2]: 1 h
half-life [2]: 5.8 h
IC50 (PD-1/PD-L1; numeric values): 5.7 nM

Cc1c(-c2nc3cc(CNC4COC4)c(OC(F)F)cc3o2)cccc1-c1cccc(-c2nc3cc(CN4CCC[C@H]4C(=O)O)c(OC(F)F)cc3o2)c1C [Example 28, ((6-(difluoromethoxy)-2-(3′-(6-(difluoromethoxy)-5-((oxetan-3-ylamino)methyl)benzo [d]oxazol-2-yl)-2,2′-dimethyl-[1,1′-biphenyl]-3-yl)benzo[d]oxazol-5-yl)methyl)-L-proline]
AUC [2]: 5800 ng·h/mL
Cmax [2]: 1280 ng/mL
Tmax [2]: 1 h
half-life [2]: 2.79 h
IC50 (PD-1/PD-L1; numeric values): 3.2 nM

Cc1c(-c2nc3cc(CN4CCC4C)c(OC(F)F)cc3o2)cccc1-c1cccc(-c2nc3cc(CN4CCC[C@H]4C(=O)O)c(OC(F)F)cc3o2)c1C (stereo partly drawn) [Example 36, ((6-(difluoromethoxy)-2-(3′-(6-(difluoromethoxy)-5-((2-methylazetidin-1-yl)methyl)benzo[d]oxazol-2-yl)-2,2′-dimethyl-[1,1′-biphenyl]-3-yl)benzo[d]oxazol-5-yl)methyl)-L-proline]
AUC [2]: 21400 ng·h/mL
Cmax [2]: 1670 ng/mL
Tmax [2]: 1 h
half-life [2]: 8.26 h
IC50 (PD-1/PD-L1; numeric values): 1.1 nM

Cc1c(-c2nc3cc(CN4CCC[C@H]4CO)c(OC(F)F)cc3o2)cccc1-c1cccc(-c2nc3cc(CN4CCC[C@H]4C(=O)O)c(OC(F)F)cc3o2)c1C [Example 12, ((6-(difluoromethoxy)-2-(3′-(6-(difluoromethoxy)-5-(((S)-2-(hydroxymethyl)pyrrolidin-1-yl)methyl)benzo[d]oxazol-2-yl)-2,2′-dimethyl-[1,1′-biphenyl]-3-yl)benzo[d]oxazol-5-yl)methyl)-L-proline]
AUC [2]: 14500 ng·h/mL
Cmax [2]: 1380 ng/mL
Tmax [2]: 2 h
half-life [2]: 7.97 h
IC50 (PD-1/PD-L1; numeric values): 1.1 nM

Cc1c(-c2nc3cc(CN4CCCC4)ccc3o2)cccc1-c1cccc(-c2nc3cc(CN4CCC[C@H]4C(=O)O)c(OC(F)F)cc3o2)c1C [Example 98, ((6-(difluoromethoxy)-2-(2,2′-dimethyl-3′-(5-(pyrrolidin-1-ylmethyl)benzo[d]oxazol-2-yl)-[1,1′-biphenyl]-3-yl)benzo[d]oxazol-5-yl)methyl)-L-proline]
AUC [2]: 8700 ng·h/mL
Cmax [2]: 1010 ng/mL
Tmax [2]: 1 h
half-life [2]: 4.47 h
IC50 (PD-1/PD-L1; range symbols): 0.1 to 5 nM

Cc1c(-c2nc3cc(CNC[C@@H]4CCCO4)c(OC(F)F)cc3o2)cccc1-c1cccc(-c2nc3cc(CN4CCC[C@H]4C(=O)O)c(OC(F)F)cc3o2)c1C [Example 64, ((6-(difluoromethoxy)-2-(3′-(6-(difluoromethoxy)-5-(((((S)-tetrahydrofuran-2-yl)methyl)amino)methyl)benzo[d]oxazol-2-yl)-2,2′-dimethyl-[1,1′-biphenyl]-3-yl)benzo[d]oxazol-5-yl)methyl)-L-proline]
AUC [2]: 61500 ng·h/mL
Cmax [2]: 4320 ng/mL
Tmax [2]: 7 h
half-life [2]: 7.2 h
IC50 (PD-1/PD-L1; numeric values): 1.8 nM

Cc1c(-c2nc3cc(CN4CC(C)(C)C4)c(OC(F)F)cc3o2)cccc1-c1cccc(-c2nc3cc(CN4CCC[C@H]4C(=O)O)c(OC(F)F)cc3o2)c1C [Example 34, ((6-(difluoromethoxy)-2-(3′-(6-(difluoromethoxy)-5-((3,3-dimethylazetidin-1-yl)methyl)benzo[d]oxazol-2-yl)-2,2′-dimethyl-[1,1′-biphenyl]-3-yl)benzo[d]oxazol-5-yl)methyl)-L-proline]
concentration at 0.5 h [1]: 46.8 ng/mL
concentration at 2 h [1]: 136 ng/mL
concentration at 4 h [1]: 154 ng/mL
AUC [2]: 56100 ng·h/mL
Cmax [2]: 4260 ng/mL
Tmax [2]: 4 h
half-life [2]: 6.99 h
IC50 (PD-1/PD-L1; numeric values): 1.3 nM
